Source: patent US20180326022A1, “COMPOSITIONS AND METHODS FOR IMPROVING HEART FUNCTION AND TREATING HEART FAILURE” (The Trustees of the University of Pennsylvania, priority 2017, published 2018)

How the values were obtained:
[1] = test system: primary adult rat cardiomyocytes; assay: Cell contractility (sarcomere shortening, 1 Hz pacing); format: cell-based; settings: for contraction amplitudes and velocities: primary adult rat cardiomyocytes, vinblastine 20 μM 2 hr, nocodazole 1 μM 30 min, costunolide 10 μM 2 hr
Experimental: (§1) Viral constructs were permitted to express for 24-72 hours with Moi=100-200. Parthenolide (Fisher Scientific NC9013142) treatment was carried out at room temperature for 2 hours at 10 μM. All experiments were performed within 48 hours of isolation, except those involving shTTL, which were allowed 72 hours to improve knockdown efficiency.
Experiments were performed in custom-fabricated cell chambers (Ionoptix) mounted on an LSM Zeiss 780 inverted confocal microscope using a 40× oil 1.4 NA objective and transmitted light camera (IonOptix MyoCam-S). For contractility assays, cells were maintained in NT solution and electrical field stimulation was provided at 1 Hz with a myopacer (IonOptix MYP100) through platinum electrodes lowered into the bath. Sarcomere length was measured optically by Fourier transform analysis (IonWizard, IonOptix). After 15 s of 1 Hz pacing to achieve steady state, five traces were recorded and analyzed.

rat cardiomyocytes = assay: Calcium measurements (Fluo-3 transients); format: cell-based; settings: rat ventricular myocytes; 2 hrs of 10 μM EpoY
Experimental: Myocytes were loaded with Fluo-3 by 20 min incubation with 1 μM Fluo-3-acetoxymethyl ester (Invitrogen) and 0.01% Pluronic F127 (a poloxamer made by BASF, Florham Park N.J., USA), and allowed an additional 10 min for de-esterification. Cells were scanned using a 488 nm argon ion laser in confocal line-scan mode at 1.92 ms/line. Cells were electrically paced at 1 Hz for 20 s to achieve steady state; the final 5 traces of the pacing protocol were pooled and analyzed for calcium transient properties. The measured fluorescence (F) throughout the transient was normalized to the resting fluorescence prior to stimulation (F0) to normalize for heterogeneity in dye loading.

detyrosinated tubulin = assay: Western blotting of cardiomyocyte lysates (TTL, α-, detyr-, tyr-tubulin); format: cell-based; settings: rat cardiomyocytes; PTL treatment; shTTL; short term EpoY
Experimental: as §1
For analysis of proteins expression levels quantitative Western blots were performed using infrared fluorescence imaging on an Odyssey Imager (LI-COR). Cell homogenates were prepared in ice-cold IGEPAL lysis buffer. After 1 freezing cycle lysates were spun at 18,000×g for 5 min. Aliquots of supernatants were mixed with 4× sample buffer (LI-COR, 928-40004) containing 10% BME, boiled for 6 min., and resolved on sodium dodecyl sulfate (SDS)-polyacrylamide gel electrophoresis Tris-glycine gels (Bio-Rad). Proteins were transferred to a membrane on Mini Trans-Blot Cell (Bio-Rad), blocked 1 h in Odyssey Blocking Buffer (TBS) (LI-COR, 927-50000), and probed with the corresponding primary antibody (see list below) for 2 h at room temperature. Membranes were then rinsed with TBST 4 times for 5 min, and incubated with secondary antibodies (below) for 1.5 h at room temperature. Membranes were rinsed again with TBST and then imaged on Odyssey Imager. Image analysis was performed using Image Studio Lite software (LI-COR). Fluorescent band intensity was always normalized to GAPDH loading control. Analysis of human tissue samples for levels of detyrosinated tubulin was performed blinded to the experimental groups.

[2] = test system: cardiac and skeletal muscle; settings: 10 μM; refs (13), (8); cited from earlier work
human myocytes [3] = assay: Calcium measurements in human myocytes; format: cell-based
Experimental: (§2) Viable myocytes were concentrated by gravity (5-7 min) and supernatant was aspirated to remove dead cells. Myocytes were resuspended in NT solution containing 1 mM Ca^2+ and concentrated by gravity (5-7 min) again. Cardiomyocytes used acutely were maintained in NT solution for up to 6 hours. Myocytes were treated with 10 μM parthenolide (Fisher Scientific NC9013142 or Sigma P0667) or 10 μM colchicine (Sigma) at room temperature in NT solution for 2 hours. Experiments were performed within 6 hours of isolation, except for those involving viral transduction in cultured cells.
Calcium measurements were carried out as described in Example 1 with the following modifications. Myocytes were loaded with 1 μM Fluo-3-acetoxymethyl ester (Invitrogen) and 15% Pluronic F127 (a poloxamer made by BASF, Florham Park, N.J., USA) for 15 minutes. Cells were scanned using a 488-nm argon ion laser in confocal line-scan mode at 0.909 ms/line. Cells were electrically paced at 0.5 Hz at room temperature for 30 s to achieve steady state; five steady-state transients of each myocyte were averaged, pooled in groups and analyzed for calcium transient properties. The measured fluorescence (F) throughout the transient was normalized to the resting fluorescence prior to stimulation (F0) to normalize for heterogeneity in dye loading.

human myocytes [4] = assay: Nanoindentation stiffness measurements; format: cell-based; settings: failing human myocytes; 10 μM, 2 hours
Experimental: as §2
MatTek glass bottom dish was coated 5 μl of 0.5 mg/ml laminin and air dried for 10 min. Culture medium was F-10 (1×) Nutrient Mixture (Ham) [+] L-Glutamine (Life Technologies, 11550-043) supplemented with insulin-transferrin selenium-X (Gibco, 51500-056), 20 mM HEPES, 1 μg/μl primocin (Invivogen, ant-pm-1), 0.4 mM extra CaCl2, 5% FBS, 25 μM cytochalasin D (Cayman, 11330). Viable myocytes were concentrated and a proper amount of medium was added in culture so that neighboring cells were not in direct contact. […]
Mechanical properties at the microscopic scale were measured using nanoindentation (Piuma, Optics11, The Netherlands). […] The Young's moduli were calculated automatically by the software, by fitting the force vs. indentation curve to the Hertz equation. […]

human myocytes [5] = assay: Cell contractility of human myocytes (0.5 Hz); format: cell-based
Experimental: as §2
MatTek glass bottom dish was coated 5 μl of 0.5 mg/ml laminin and air dried for 10 min. Culture medium was F-10 (1×) Nutrient Mixture (Ham) [+] L-Glutamine (Life Technologies, 11550-043) supplemented with insulin-transferrin selenium-X (Gibco, 51500-056), 20 mM HEPES, 1 μg/μl primocin (Invivogen, ant-pm-1), 0.4 mM extra CaCl2, 5% FBS, 25 μM cytochalasin D (Cayman, 11330). Viable myocytes were concentrated and a proper amount of medium was added in culture so that neighboring cells were not in direct contact. Viral constructs were permitted to express for 48 hours with Moi=100-200. Adenoviral TTL-IRES-dsRed and EMTB-3x GFP were transduced in human myocytes as previously performed in rat myocytes. Myocytes were replenished with fresh warm medium without cytochalasin D before calcium and contractility measurements.
Experiments were performed as described in Example 1 with some modification. Contractility is measured in custom-fabricated cell chambers (Ionoptix) mounted on an LSM Zeiss 880 inverted confocal microscope using a 40× oil 1.4 NA objective and transmitted light camera (IonOptix MyoCam-S). Myoyctes were maintained in NT solution (for freshly isolated myocytes) or culture medium (without cytochalasin D, for cultured myocytes) at room temperature and electrical field stimulation was provided at 0.5 Hz with a myopacer (IonOptix MYP100) through platinum electrodes lowered into the bath. Sarcomere length was measured optically by Fourier transform analysis (IonWizard, IonOptix). After 10-30 s of 0.5 Hz pacing to achieve steady state, five traces were recorded and analyzed. If not specified, contractility data was obtained at room temperature.
To test whether the contractile improvement over MT destabilization remains under more physiological conditions, both 0.5 Hz and 1 Hz contractions at 37 C were recorded and analyzed in a small subset of isolated human myocytes (1 NF and 1 failing heart, FIG. 29C).

CC[C@]1(O)C[C@@H]2CN(CCc3c([nH]c4ccccc34)[C@@](C(=O)OC)(c3cc4c(cc3OC)N(C)[C@H]3[C@@](O)(C(=O)OC)[C@H](OC(C)=O)[C@]5(CC)C=CCN6CC[C@]43[C@@H]65)C2)C1 [vinblastine]
contraction amplitudes and velocities [1]: effective to increase

COC(=O)Nc1nc2ccc(C(=O)c3cccs3)cc2[nH]1 [nocodazole]
contraction amplitudes and velocities [1]: effective to increase

CCOC(=O)C1O[C@@H]1C(=O)N[C@@H](Cc1ccc(O)cc1)C(=O)O (some centres unmarked) [EpoY]
electrically evoked [Ca2+]i transients (rat cardiomyocytes): not changed | alpha / total tubulin levels (western blot) (detyrosinated tubulin): without changing | detyrosinated tubulin (western blot) (detyrosinated tubulin): specifically reduces detyrosination | contractility (amplitude of contraction, velocity of contraction and relaxation) ([1]; rat ventricular myocytes, 2 hrs of 10 μM EpoY): enhanced

COc1cc2c(c(OC)c1OC)-c1ccc(OC)c(=O)cc1[C@@H](NC(C)=O)CC2 [colchicine, (S)—N-(5,6,7,9-tetrahydro-1,2,3,10-tetramethoxy-9 oxobenzol[a]heptalen-7-yl) acetamide]
effect on microtubules [2]: broadly depolymerizes MTs | Ca2+ cycling (human myocytes [3]; any group (NF and failing human myocytes)): no significant effect | impaired [Ca2+]i cycling (human myocytes [3]; failing human myocytes): neither colch nor PTL treatment improved | viscoelasticity (Emax and EΔ) (human myocytes [4]): robustly reduced viscoelasticity | shortening amplitude and contractile velocities (human myocytes [5]; NF human myocytes, 10 μM, 2 hours): modest (yet significant) increases | restoration of lost function (contractile velocities vs NF benchmark) (human myocytes [5]; failing human myocytes): ~50% | shortening amplitude and velocity, speed of relaxation (human myocytes [5]; failing human myocytes, 10 μM, 2 hours): robustly improved

C=C1C(=O)O[C@@H]2/C=C(\C)CC/C=C(\C)CC[C@@H]12 [costunolide, (3aS,6E,10E,11aR)-6,10-dimethyl-3-methylidene-3a,4,5,8,9,11a-hexahydrocyclodeca[b]furan-2-one]
contraction amplitudes and velocities [1]: effective to increase
